Measurements from publication PMC10653080, “Intermolecular Interactions, Solute Descriptors, and Partition Properties of Neutral Per- and Polyfluoroalkyl Substances (PFAS)” (Environmental Science & Technology, 2023).
Read-outs that look alike come from different tables or passages of the source.

Assay: PP-LFER solute descriptor determination from GC retention and partition coefficient data
Type: physicochemical
Conditions: for Solute descriptor S (dipolarity/polarizability parameter): final adjusted value, shared within a PFAS group
From the text: The GC columns used were, from low to high polarity, HP-5ms Ultra Inert (poly[5% phenyl/95% methyl]siloxane equivalent; Agilent Technologies, Santa Clara, CA), DB-200 (poly[35% trifluoropropyl/65% methyl]siloxane; Agilent Technologies), DB-225ms (poly[50% cyanopropylphenyl/50% methyl]siloxane equivalent; Agilent Technologies), and SolGel-WAX (polyethylene glycol; Trajan, Ringwood, Australia). Column dimensions were all 30 m × 0.25 mm i.d. with a coating thickness of 0.25 μm.
The method for GC retention time measurements follows that of a previous study.[18] Briefly, a 7890A/5975C GC/MS instrument (Agilent Technologies) equipped with an MPS2 autosampler and CIS4 injector (Gerstel, Mülheim an der Ruhr, Germany) was used for all measurements. For each column, isothermal retention times were measured at four temperatures in the range of 30–120 °C to cover all target compounds. The temperature at the injector and transfer line was fixed at 120 °C. The carrier gas was He at a flow rate of 1.2 mL/min. Compounds were introduced into the GC by injecting either headspace (100–250 μL) above the pure compound or solution in acetone (1 μL). Split injections were performed with a split ratio of 20–250. Column dead time (t0) was determined by injecting air and measuring Ar (m/z 40). From the measured retention time (t), the retention factor (k) was calculated as k = (t–t0)/t0. Measurements with t < t0 + 0.1 min were considered too short and discarded. For each column and temperature, k values were obtained for 29–52 PFAS and 29–48 reference compounds.
The standard procedure for solute descriptor determination was as follows. First, the system parameters in eq 1 were calibrated for each column (or partition system) and temperature by MLR using log k (or log K) data and solute descriptors for reference compounds. Dimethylformamide, 1-pentylamine, dimethylsulfoxide, and dodecamethylcyclohexasiloxane (D6) were removed from the log k data sets, because they frequently appeared as outliers (>3 SD) of the PP-LFER model fit. Reference data sets for hexadecane/water partition coefficients (KHxd/w),[21]Kow,[22] and octanol/air partition coefficients (Koa)[23] were taken from the cited references and amended with data for organosilicon compounds.[24],[25] Similar to PFAS, organosilicon compounds have weak van der Waals interaction properties[9] and it may be beneficial to include them in reference data sets. The solute descriptors for PFAS were then back-calculated by using the calibrated PP-LFER equations. Of the five descriptors, V can be calculated from the molecular structure[26] (note: the fragment value for F from Goss et al.[11] was used), and L was available for the PFAS studied.[18] Thus, the left side of eq 2 was known, and MLR was performed to obtain S, A, and B on the right side. [drawing 2] 2 To determine the three descriptors, a minimum of three k and K data are required for a given PFAS compound. The data used here were: k measured for 60 PFAS in this study, KHxd/w for 21 PFAS,[5]Kow for 12 PFAS (see the Results and Discussion section), and Koa for 3 PFAS.[11]
Key to the accurate determination of the polar interaction descriptors is the availability of K data for partition systems with water as a partition phase because water is a strong H-bond donor and acceptor phase and thus the corresponding K values are sensitive to the H-bonding properties of the solute.[27] In particular, at least one solvent/water or air/water partition coefficient is required to determine B because there is no commonly used GC phase that is a significant H-bond donor. In the data set, KHxd/w is sensitive to both A and B and Kow is sensitive to B. However, KHxd/w and Kow data are not available for all PFAS. To increase the number of PFAS for which descriptors can be determined, the following assumptions were made. […]

[1] = 25 °C, updated in the iterative calculation

Structure (SMILES) | Solute descriptor L (logarithmic hexadecane/air partition coefficient, KHxd/air) [1] | Solute descriptor S (dipolarity/polarizability parameter) | Solute descriptor L (logarithmic hexadecane/air partition coefficient, KHxd/air)
CNS(=O)(=O)C(F)(F)C(F)(F)C(F)(F)C(F)(F)C(F)(F)C(F)(F)F [MeFHxSA, N-Methylperfluorohexanesulfonamide] | 4.135 | 0.88 | –
C=C(C)C(=O)OCCC(F)(F)C(F)(F)C(F)(F)C(F)(F)C(F)(F)C(F)(F)C(F)(F)C(F)(F)C(F)(F)C(F)(F)F [10:2 FTMAC, 1H,1H,2H,2H-Perfluorododecyl methacrylate] | – | 0.53 | 5.671
CN(CCO)S(=O)(=O)C(F)(F)C(F)(F)C(F)(F)C(F)(F)C(F)(F)C(F)(F)C(F)(F)C(F)(F)F [MeFOSE, N-Methylperfluorooctanesulfonamidoethanol] | – | 1.00 | 5.909
FC(F)(F)C(F)(F)C(F)(F)C(F)(F)C(F)(F)C(F)(F)C(F)(F)C(F)(F)CCI [8:2 FTI, 1H,1H,2H,2H-Perfluorodecyl iodide] | 4.455 | 0.32 | –
FC(F)(F)C(F)(I)OC(F)(F)C(F)(F)C(F)(F)F (stereo not drawn) [FE-E1-I, 1-(Heptafluoropropoxy)-1,2,2,2-tetrafluoro-1-iodoethane] | 1.937 | 0.06 | –
NS(=O)(=O)C(F)(F)C(F)(F)C(F)(F)C(F)(F)C(F)(F)C(F)(F)C(F)(F)C(F)(F)F [PFOSA, Perfluorooctanesulfonamide] | – | 0.96 | 4.744
C=C(C)C(=O)OCCC(F)(F)C(F)(F)C(F)(F)C(F)(F)F [4:2 FTMAC, 1H,1H,2H,2H-Perfluorohexyl methacrylate] | 3.990 | 0.53 | –
OCCC(F)(F)C(F)(F)C(F)(F)C(F)(F)C(F)(F)C(F)(F)C(F)(F)C(F)(F)C(F)(F)C(F)(F)F [10:2 FTOH, 1H,1H,2H,2H-Perfluorododecan-1-ol] | – | 0.35 | 4.117
CCNS(=O)(=O)C(F)(F)C(F)(F)C(F)(F)C(F)(F)C(F)(F)C(F)(F)F [EtFHxSA, N-Ethylperfluorohexanesulfonamide] | 4.400 | 0.88 | –
FC(F)(F)C(F)(F)C(F)(F)C(F)(F)C(F)(F)C(F)(F)C(F)(F)C(F)(F)C(F)(F)C(F)(F)CCI [10:2 FTI, 1H,1H,2H,2H-Perfluorododecyl iodide] | – | 0.32 | 5.020
FC(F)(F)C(F)(F)C(F)(F)C(F)(F)I [PFBI, Perfluorobutyl iodide] | 1.939 | 0.07 | –
FC(OC(F)(F)C(F)(OC(F)(F)C(F)(OC(F)(F)C(F)(OC(F)(F)C(F)(F)C(F)(F)F)C(F)(F)F)C(F)(F)F)C(F)(F)F)C(F)(F)F (stereo not drawn) [FE-E4, 1,1,1,2,4,4,5,7,7,8,10,10,11,13,13,14,14,15,15 ,15-Eicosafluoro-5,8,11-tris(trifluoromethyl)-3,6,9,12-tetraoxapentadecane] | – | -0.55 | 2.542
OCCC(F)(F)C(F)(F)C(F)(F)C(F)(F)C(F)(F)C(F)(F)C(F)(F)C(F)(F)C(F)(F)C(F)(F)C(F)(F)C(F)(F)F [12:2 FTOH, 1H,1H,2H,2H-Perfluorotetradecan-1-ol] | – | 0.35 | 4.682
FC(OC(F)(F)C(F)(OC(F)(F)C(F)(OC(F)(F)C(F)(F)C(F)(F)F)C(F)(F)F)C(F)(F)F)C(F)(F)F (stereo not drawn) [FE-E3, 1,1,1,2,2,3,3-Heptafluoro-3-[(1,1,1,2,3,3-hexafluoro-3-{[1,1,1,2,3,3-hexafluoro-3-(1,2,2,2-tetrafluoroethoxy)-2-propanyl]oxy}-2-propanyl)oxy]propane] | – | -0.33 | 1.899
C=Cc1ccc(C(F)(F)C(F)(F)C(F)(F)C(F)(F)C(F)(F)C(F)(F)C(F)(F)C(F)(F)F)cc1 [PFOSt, 4-(Perfluorooct-1-yl)styrene] | – | 0.32 | 5.645
C=CC(F)(F)C(F)(F)C(F)(F)C(F)(F)C(F)(F)C(F)(F)C(F)(F)C(F)(F)C=C [1,8-DVPFO, 1,8-Divinylperfluorooctane] | 3.927 | 0.44 | –
C=CC(F)(F)C(F)(F)C(F)(F)C(F)(F)C(F)(F)C(F)(F)F [6:2 FTO, 1H,1H,2H-Perfluoro-1-octene] | 2.022 | 0.11 | –
CNS(=O)(=O)C(F)(F)C(F)(F)C(F)(F)C(F)(F)C(F)(F)C(F)(F)C(F)(F)C(F)(F)F [MeFOSA, N-Methylperfluorooctanesulfonamide] | 4.703 | 0.88 | –
C=CC(F)(F)C(F)(F)C(F)(F)C(F)(F)C(F)(F)C(F)(F)C(F)(F)C(F)(F)F [8:2 FTO, 1H,1H,2H-Perfluoro-1-decene] | 2.504 | 0.11 | –
FC(F)(F)C(F)(F)C(F)(F)C(F)(F)N(C(F)(F)C(F)(F)C(F)(F)C(F)(F)F)C(F)(F)C(F)(F)C(F)(F)C(F)(F)F [PFTBA, Perfluorotributyl amine] | 2.302 | -0.23 | –
C=CCOCC(F)(F)C(F)(F)C(F)(F)C(F)(F)C(F)(F)C(F)(F)C(F)(F)F [AFOE, Allyl 1H,1H-perfluorooctyl ether] | 3.584 | 0.30 | –
FC(F)(F)C(F)(F)C(F)(F)C(F)(F)C(F)(F)C(F)(F)C(F)(F)I [PFHpI, Perfluoroheptyl iodide] | 2.792 | 0.07 | –
C=C(C)C(=O)OCCC(F)(F)C(F)(F)C(F)(F)C(F)(F)C(F)(F)C(F)(F)C(F)(F)C(F)(F)F [8:2 FTMAC, 1H,1H,2H,2H-Perfluorodecyl methacrylate] | – | 0.53 | 5.115
CCN(CCO)S(=O)(=O)C(F)(F)C(F)(F)C(F)(F)C(F)(F)C(F)(F)C(F)(F)C(F)(F)C(F)(F)F [EtFOSE, N-Ethylperfluorooctanesulfonamidoethanol] | – | 1.00 | 6.253
CCN(CCO)S(=O)(=O)C(F)(F)C(F)(F)C(F)(F)C(F)(F)C(F)(F)C(F)(F)F [EtFHxSE, N-Ethylperfluorohexanesulfonamidoethanol] | 5.685 | 1.00 | –
C=CCOC(F)(C(F)(F)F)C(F)(F)F [APFIPE, Allyl perfluoroisopropyl ether] | 1.717 | 0.15 | –
CCNS(=O)(=O)C(F)(F)C(F)(F)C(F)(F)C(F)(F)C(F)(F)C(F)(F)C(F)(F)C(F)(F)F [EtFOSA, N-Ethylperfluorooctanesulfonamide] | – | 0.88 | 4.967
